Measurements as given in patent US20130143958A1, “DOSAGE UNIT COMPRISING A PROSTAGLANDIN ANALOG FOR TREATING CONSTIPATION” (priority 2001, published 2013).

Key:
[1] = cited from earlier work; for effect on the intestine: administered in pharmacological doses
[2] = system: volunteers; assay: Phase Ib multiple rising dose study (TID for 6 days), safety, tolerance and bowel movement frequency; assay type: in vivo, human; details: for total bowel movements in group: placebo 31
Protocol: (§1) The safety and tolerance of oral Compound A (13,14-dihydro-15-keto-16,16-difluoro-PGE1) was evaluated in 16 volunteers in a single-dose Phase I study (Phase Ia) at rising per-person doses of 6 μg, 12 μg, 24 μg, 48 μg, 72 μg, and 96 μg compared and in 24 volunteers in a multiple-dose Phase I study (Phase Ib) at rising per-person doses of 24 μg, 30 μg, and 36 μg of Compound A administered three times a day (TID) (i.e., total daily per person doses of 72 μg, 90 μg and 108 μg) for 6 days.
Compound A was determined to be optimal when administered at the 24 μg dose TID and determined to be safe and tolerable up to 36 μg when administered TID for at least 6 days.
Bowel movement frequency was assessed in this study as well. […] A total of 193 bowel movements were experienced in this study. Of these, 31 occurred in the placebo group, 70 in the 24 μg group, 51 in the 30 μg group and 41 in the 36 μg group.

[3] = system: volunteers; assay: Phase Ia single rising dose study, safety, tolerance and bowel movement frequency; assay type: in vivo, human
Protocol: as §1
96 μg was the maximum tolerated single oral Compound A dose. […] These occurred in 13 of the 17 volunteers and all resolved. Volunteers receiving placebo experienced five AEs. Most AEs could be categorized as either responses or events commonly reported in Phase I clinical trials (such as headache and lightheadedness) or expected pharmacodynamic responses of Compound A (such as loose bowel movements, diarrhea and abdominal cramping).
Bowel movement frequency was assessed during the 24 hour period after dosing for each dose-level group. Bowel movements were experienced in the placebo and in all active dose groups. […] Compared to only three of twelve subjects experiencing bowel movements in the placebo group, all six subjects in the 96 μg Compound A group experienced bowel movements. Furthermore, the average number of bowel movements per subject in this Compound A group (1.5) was three times greater than the average number of bowel movements per subject in the placebo group (0.5).

[4] = system: patients; assay: Phase II dosage study in constipation, 21 days; assay type: in vivo, human; details: for daily average number of spontaneous bowel movements vs placebo: Week 1 and Week 2; for stool consistency: all post-baseline time points
Protocol: All randomized patients who took at least one dose of double-blind study medication constituted the safety evaluable (SE) population. These patients were included in the demographic data, baseline characteristic data and safety analysis. For efficacy, the same data set was used and is referred to as the intent-to-treat (ITT) population. […] Key efficacy analyses were also performed on the per-protocol (PP) population, which excluded all data for the affected weeks for protocol violators. Patients whose treatments were adjusted were analyzed in their original treatment group (i.e., as randomized).
Eligible patients were treated with either placebo or total daily doses of 24 μg, 48 μg or 72 μg of Compound A for 21 days. One placebo or Compound A capsule was taken 3 times each day (AM, Noon, and PM). Compound A was administered as 24 μg oral capsules. Patients assigned to receive the total daily 24 μg Compound A dose took one Compound A capsule in the AM and one matching placebo capsule both at Noon and in the PM; patients assigned to receive the total daily 48 μg Compound A dose took one Compound A capsule in both the AM and PM and one matching placebo capsule at Noon; patients assigned to receive the total daily 72 μg Compound A dose took one Compound A capsule in the AM, at Noon, and in the PM.

For CCCCC[C@H](O)/C=C/[C@H]1[C@H](O)CC(=O)[C@@H]1C/C=C\CCCC(=O)O [PGE2], the “effect on the intestine” value [1] is given as “stimulate intestinal transit and to cause diarrhea”.
In the case of CCCCC[C@H](O)/C=C/[C@@H]1[C@@H](C/C=C\CCCC(=O)O)[C@@H](O)C[C@H]1O [PGF2α], the “effect on the intestine” value [1] is listed as “stimulate intestinal transit and to cause diarrhea”.
With CCCCC(F)(F)C(=O)CCC1C(O)CC(=O)C1CCCCCCC(=O)O (centres unmarked) [Compound A, 13,14-dihydro-15-keto-16,16-difluoro-PGE1] the “total bowel movements in group” value ([2]; 24 μg group TID) was 70, the “total bowel movements in group” value ([2]; 30 μg group TID) was 51 and the “maximum tolerated multiple dose as total daily dose” value ([2]; 36 μg TID) was 108 µg. The “total bowel movements in group” value ([2]; 36 μg group TID) was 41, the “best tolerated effective dose” value ([2]; TID, healthy volunteers) was 24 µg and the optimal dose ([2]; administered TID) was 24 µg. The “central nervous system or physical abnormalities” value ([2]; in vivo) was “no central nervous system or physical abnormalities observed”, the “main dose limiting side effect” value ([2]; in vivo) was “nausea” and the “safe and tolerable dose” value ([2]; in vivo) was “up to 36 μg”. For the same compound, the “vital signs and ECG measurements” value ([2]; in vivo) was “normal”, the “maximum tolerated multiple per-person dose” value ([2]; oral, taken TID, 6 days) was 36 µg and the “average number of bowel movements per subject relative to placebo group” value ([3]; 96 μg single dose, 24 hour period after dosing) was “three”. The “average number of bowel movements per subject” value ([3]; 96 μg single dose, 24 hour period after dosing, placebo 0.5) was 1.5, the “subjects experiencing bowel movements” value ([3]; 96 μg single dose, 24 hour period after dosing, placebo three of twelve) was “all six” and the “bowel movements compared to placebo” value ([3]; 24 hour period after dosing) was “trend for increased bowel movements”. The “total number of AEs” value ([3]; in vivo) was 49, the “volunteers with AEs” value ([3]; in vivo) was 13 of the 17 and the dose-limiting toxicity ([3]; in vivo, po) was “nausea”. The “maximum tolerated single per-person dose” value ([3]; single oral dose) was 96 µg, the “proportion of patients who had a spontaneous bowel movement on Day 1” value ([4]; 48 μg total daily dose) was “statistically significant increase” and the “daily average number of spontaneous bowel movements vs placebo” value ([4]; 48 μg total daily dose) was “statistically significant increases”. For the same compound, the constipation severity ([4]; 48 μg total daily dose, Week 3) was “Statistically significant improvements”, the stool consistency ([4]; 48 μg total daily dose) was “Statistically significant improvements” and the “proportion of patients who had a spontaneous bowel movement on Day 1” value ([4]; 72 μg total daily dose) was “statistically significant increase”. For the same compound, the “daily average number of spontaneous bowel movements vs placebo” value ([4]; 72 μg total daily dose) was “statistically significant increases”, the constipation severity ([4]; 72 μg total daily dose, Weeks 2 and 3) was “Statistically significant improvements” and the stool consistency ([4]; 72 μg total daily dose) was “Statistically significant improvements”. For the same compound, the minimum effective dose ([4]; based on statistical analyses) was 48 μg per day and the “overall efficacy, relief of constipation” value ([4]; doses as low as 24 μg per day) was “tended to relieve constipation”.
In the case of CCCCC(C)(O)C/C=C/[C@H]1[C@H](O)CC(=O)[C@@H]1CCCCCCC(=O)OC (mixture of isomers) [misoprostol], the “most commonly reported side effect” value ([1]; in vivo) is given as “diarrhea”.
